From US8367658B2, “Pyrazin-2-yl-pyridin-2-yl-amine and pyrazin-2-yl-pyrimidin-4-yl-amine compounds and their use” (Cancer Research Technology Limited, priority 2007, dated 2013)
Where “and” joins values, the source holds several entries; their conditions need not be identical. Equal entries are not always repeated.

molecular target: T1, CHK1 (Homo sapiens, UniProt O14757); assay: CHK1 kinase function inhibition assay (DELFIA, phosphorylation of a CDC25C peptide); format: biochemical; conditions: CHK1 1 nM, ATP 30 μM, 30 minutes at room temperature
T1 sequence (O14757 1-476): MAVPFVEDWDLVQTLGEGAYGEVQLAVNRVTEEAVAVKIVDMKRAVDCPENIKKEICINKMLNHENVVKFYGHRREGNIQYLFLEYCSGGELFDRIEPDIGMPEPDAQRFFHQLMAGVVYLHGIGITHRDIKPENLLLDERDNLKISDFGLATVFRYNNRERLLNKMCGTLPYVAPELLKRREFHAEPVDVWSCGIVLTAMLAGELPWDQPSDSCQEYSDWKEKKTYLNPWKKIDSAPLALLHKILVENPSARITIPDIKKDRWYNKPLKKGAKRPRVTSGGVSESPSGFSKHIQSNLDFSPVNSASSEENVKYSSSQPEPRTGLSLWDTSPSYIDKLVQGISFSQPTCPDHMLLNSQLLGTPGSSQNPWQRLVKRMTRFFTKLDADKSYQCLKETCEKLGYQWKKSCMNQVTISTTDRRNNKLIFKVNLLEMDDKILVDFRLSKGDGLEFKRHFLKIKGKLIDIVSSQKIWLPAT
Description: Measurement of Inhibition of CHK1 Kinase Function
CHK1 kinase function was measured in a DELFIA® assay in order to monitor phosphorylation of a CDC25C peptide using a specific phospho antibody.
The reaction mixture was incubated for 30 minutes at room temperature and then stopped by the addition of buffer (125 μL) containing 40 mM EDTA, 0.05% Tween 20, 0.1% BSA in TBS (10× concentrate, Sigma). An aliquot (100 μL) of the stopped reaction mixture was transferred to a black neutravidin-coated plate (Perbio) and incubated for 1 hour on a shaker (Titertek, Flow Laboratories) at room temperature. […] The plates were washed a further four times with wash buffer before the addition of enhancement solution (100 μL/well, PerkinElmer Life Sciences).

IC50 | Compound
1000 to 10000 nM | N#Cc1cnc(Nc2cc(NCC3CCNCC3)c(C(=O)N3CCOCC3)cn2)cn1 [Compound Y-089, 5-(5-(Morpholine-4-carbonyl)-4-(piperidin-4-ylmethylamino)pyridin-2-ylamino)pyrazine-2-carbonitrile]
≤ 1000 nM and 100 to 1000 nM | COC(=O)c1cnc(Nc2cnc(C#N)cn2)cc1NCC1(C)COC1 [Compound Y-031, Methyl 6-(5-cyanopyrazin-2-ylamino)-4-((3-methyloxetan-3-yl)methylamino)nicotinate]
≤ 100 nM | N#Cc1cnc(Nc2cc(NCC3CCNCC3)c(C(=O)Nc3ccc(N4CCOCC4)cc3)cn2)cn1 [Compound Y-100, 6-(5-Cyanopyrazin-2-ylamino)-N-(4-morpholinophenyl)-4-(piperidin-4-ylmethylamino)nicotinamide]
≤ 1000 nM and 100 to 1000 nM | N#Cc1cnc(Nc2cc(N[C@@H]3CCCNC3)c(N)cn2)cn1 [Compound Y-008, (R)-5-(5-Amino-4-(piperidin-3-ylamino)pyridin-2-ylamino)pyrazine-2-carbonitrile]
100 to 1000 nM | COc1ccccc1NC(=O)c1cnc(Nc2cnc(C#N)cn2)cc1NCC1CCNCC1 [Compound Y-097, 6-(5-Cyanopyrazin-2-ylamino)-N-(2-methoxyphenyl)-4-(piperidin-4-ylmethylamino)nicotinamide]
≤ 100 nM | CCNC(=O)c1cnc(Nc2cnc(C#N)cn2)cc1NC1CCN(C)CC1 [Compound Y-085, 6-(5-Cyanopyrazin-2-ylamino)-N-ethyl-4-(1-methylpiperidin-4-ylamino)nicotinamide]
100 to 1000 nM | N#Cc1cnc(Nc2cc(NCC3CCNCC3)c(C(=O)Nc3ccccc3F)cn2)cn1 [Compound Y-093, 6-(5-Cyanopyrazin-2-ylamino)-N-(2-fluorophenyl)-4-(piperidin-4-ylmethylamino)nicotinamide]
≤ 100 nM | COCc1ccc(-c2cnc(Nc3cnc(C#N)cn3)cc2NC2CCN(C)CC2)cc1 [Compound Y-119, 5-(5-(4-(Methoxymethyl)phenyl)-4-(1-methylpiperidin-4-ylamino)pyridin-2-ylamino)pyrazine-2-carbonitrile]
1000 to 10000 nM | CC1(CNc2cc(Nc3cnc(C#N)cn3)ncn2)CCNCC1 [Compound Z-028, 5-(6-((4-Methylpiperidin-4-yl)methylamino)pyrimidin-4-ylamino)pyrazine-2-carbonitrile]
≤ 100 nM | COCCOc1ccc(-c2cnc(Nc3cnc(C#N)cn3)cc2NC2CCN(C)CC2)cc1 [Compound Y-117, 5-(5-(4-(2-Methoxyethoxy)phenyl)-4-(1-methylpiperidin-4-ylamino)pyridin-2-ylamino)pyrazine-2-carbonitrile]
≤ 100 nM | N#Cc1cnc(Nc2cc(NCC3CCCNC3)c(-n3cccc3)cn2)cn1 (stereo not shown) [Compound Y-056, 5-(4-(Piperidin-3-ylmethylamino)-5-(1H-pyrrol-1-yl)pyridin-2-ylamino)pyrazine-2-carbonitrile]
≤ 100 nM | N#Cc1cnc(Nc2cc(NC[C@@H]3CCCNC3)c(N)cn2)cn1 [Compound Y-048, (R)-5-(5-Amino-4-(piperidin-3-ylmethylamino)pyridin-2-ylamino)pyrazine-2-carbonitrile]
1000 to 10000 nM | N#Cc1cnc(Nc2cc(N[C@H]3CCCNC3)c(N)cn2)cn1 [Compound Y-009, (S)-5-(5-Amino-4-(piperidin-3-ylamino)pyridin-2-ylamino)pyrazine-2-carbonitrile]
≤ 1000 nM and 100 to 1000 nM | N#Cc1cnc(Nc2cc(NCCC[C@H](N)C(=O)Nc3ccccc3)ncn2)cn1 [Compound Z-010, (S)-2-Amino-5-(6-(5-cyanopyrazin-2-ylamino)pyrimidin-4-ylamino)-N-phenylpentanamide]
1000 to 10000 nM | N#Cc1cnc(Nc2cc(N(CCN)CC(N)=O)ncn2)cn1 [Compound Z-009, 2-((2-Aminoethyl)(6-(5-cyanopyrazin-2-ylamino)pyrimidin-4-yl)amino)acetamide]
≤ 1000 nM and 100 to 1000 nM | COC(=O)c1cnc(Nc2cnc(C)cn2)cc1NCC1CCNCC1 [Compound Y-036, Methyl 6-(5-methylpyrazin-2-ylamino)-4-(piperidin-4-ylmethylamino)nicotinate]
100 to 1000 nM | CS(=O)(=O)c1cccc(-c2cnc(Nc3cnc(C#N)cn3)cc2NCC2CCNCC2)c1 [Compound Y-132, 5-(5-(3-(Methylsulfonyl)phenyl)-4-(piperidin-4-ylmethylamino)pyridin-2-ylamino)pyrazine-2-carbonitrile]
1000 to 10000 nM | N#Cc1cnc(Nc2cc(OCC3CCOC3)c(NC(=O)CCC3CCNCC3)cn2)cn1 (stereo not shown) [Compound Y-068, N-(6-(5-Cyanopyrazin-2-ylamino)-4-((tetrahydrofuran-3-yl)methoxy)pyridin-3-yl)-3-(piperidin-4-yl)propanamide]
1000 to 10000 nM | N#Cc1cnc(Nc2cc(N3CCOC(CN)C3)ncn2)cn1 (stereo not shown) [Compound Z-014, 5-(6-(2-(Aminomethyl)morpholino)pyrimidin-4-ylamino)pyrazine-2-carbonitrile]
≤ 100 nM | COCCOc1ccc(-c2cnc(Nc3cnc(C#N)cn3)cc2NC[C@@H]2CNCCO2)cc1 [Compound Y-149, (S)-5-(5-(4-(2-Methoxyethoxy)phenyl)-4-(morpholin-2-ylmethylamino)pyridin-2-ylamino)pyrazine-2-carbonitrile]
≤ 100 nM | COCc1cccc(-c2cnc(Nc3cnc(C#N)cn3)cc2NC2CCN(C)CC2)c1 [Compound Y-115, 5-(5-(3-(methoxymethyl)phenyl)-4-(1-methylpiperidin-4-ylamino)pyridin-2-ylamino)pyrazine-2-carbonitrile]
1000 to 10000 nM | N#Cc1cnc(Nc2cc(N[C@H]3CC[C@H](O)CC3)ncn2)cn1 [Compound Z-038, 5-(6-((1r,4r)-4-Hydroxycyclohexylamino)pyrimidin-4-ylamino)pyrazine-2-carbonitrile]
100 to 1000 nM | COC(=O)c1cnc(Nc2cnc(OC)cn2)cc1NCC1CNCCO1 (stereo not shown) [Compound Y-106, Methyl 6-(5-methoxypyrazin-2-ylamino)-4-(morpholin-2-ylmethylamino)nicotinate]
1000 to 10000 nM | N#Cc1cnc(Nc2cc(N3CCNCC3)ncn2)cn1 [Compound Z-018, 5-(6-(piperazin-1-yl)pyrimidin-4-ylamino)pyrazine-2-carbonitrile]
≤ 100 nM | COc1ccc(-c2cnc(Nc3cnc(C#N)cn3)cc2NC2CCN(C)CC2)cc1 [Compound Y-114, 5-(5-(4-methoxyphenyl)-4-(1-methylpiperidin-4-ylamino)pyridin-2-ylamino)pyrazine-2-carbonitrile]
≤ 100 nM | COCC#Cc1cnc(Nc2cnc(C#N)cn2)cc1NC[C@@H]1CNCCO1 [Compound Y-154, (S)-5-(5-(3-Methoxyprop-1-ynyl)-4-(morpholin-2-ylmethylamino)pyridin-2-ylamino)pyrazine-2-carbonitrile]
≤ 100 nM | N#Cc1cnc(Nc2cc(NCC3CCNCC3)c(C(=O)N3CCCC3)cn2)cn1 [Compound Y-087, 5-(4-(Piperidin-4-ylmethylamino)-5-(pyrrolidine-1-carbonyl)pyridin-2-ylamino)pyrazine-2-carbonitrile]
100 to 1000 nM | CN(C)CC(=O)Nc1cnc(Nc2cnc(C#N)cn2)cc1NCC1CCCNC1 (stereo not shown) [Compound Y-044, N-(6-(5-Cyanopyrazin-2-ylamino)-4-(piperidin-3-ylmethylamino)pyridin-3-yl)-2-(dimethylamino)acetamide]
≤ 100 nM | COCCCc1cnc(Nc2cnc(C#N)cn2)cc1NCC1CCNCC1 [Compound Y-141, 5-(5-(3-methoxypropyl)-4-(piperidin-4-ylmethylamino)pyridin-2-ylamino)pyrazine-2-carbonitrile]

Compound | IC50
COC(=O)c1cnc(Nc2cnc(C#N)cn2)cc1N[C@H]1C[C@H]2CC[C@@H](C1)N2Cc1ccccc1 [Compound Y-030, Methyl 4-((1R,3r,5S)-8-benzyl-8-azabicyclo[3.2.1]octan-3-ylamino)-6-(5-cyanopyrazin-2-ylamino)nicotinate] | 1000 to 10000 nM
COC(=O)c1cnc(Nc2cnc(OC)cn2)cc1NC1CC2CCC(C1)N2C (stereo not shown) [Compound Y-037, Methyl 6-(5-methoxypyrazin-2-ylamino)-4-(8-methyl-8-azabicyclo[3.2.1]octan-3-ylamino)nicotinate] | ≤ 100 nM
COC(=O)c1cnc(Nc2cnc(C#N)cn2)cc1NC1C[C@H]2CC[C@@H](C1)N2Cc1ccccc1 (stereo partly drawn) [Compound Y-029, Methyl 4-((1R,3s,5S)-8-benzyl-8-azabicyclo[3.2.1]octan-3-ylamino)-6-(5-cyanopyrazin-2-ylamino)nicotinate] | ≤ 100 nM
CN1C2CCC1CC(Nc1cc(Nc3cnc(C#N)cn3)ncn1)C2 [Compound Z-027, 5-(6-((1R,3s,5S)-8-Methyl-8-azabicyclo[3.2.1]octan-3-ylamino)pyrimidin-4-ylamino)pyrazine-2-carbonitrile] | ≤ 100 nM
CCCN1C2CCC1CC(Nc1cc(Nc3cnc(C#N)cn3)ncc1C(=O)OC)C2 (stereo not shown) [Compound Y-079, Methyl 6-(5-cyanopyrazin-2-ylamino)-4-(8-propyl-8-azabicyclo[3.2.1]octan-3-ylamino)nicotinate] | ≤ 100 nM
